Reference: patent EP0184291B1, “Polyether antibiotic A80190” (ELI LILLY AND COMPANY, priority 1984, dated 1986)

What was measured:
NRRL 15878 = assay: Resistance to antibiotics, sensitivity discs on seeded ISP No. 2 agar; assay type: cell-based, Actinomadura oligospora
Experimental: (§1) Resistance to antibiotics was measured by padding antibiotic sensitivity discs onto the surface of seeded ISP No. 2 agar plates.
(§2) Table III lists the resistance of the strain to various antibiotics at the concentrations indicated and compares it to that of A. macra.

A. macra = assay: as above; assay type: cell-based
Experimental: as §1, §2

[1] = tested on: Eimeria acervulina (Lilly strain 59), Eimeria maxima (strain FS-177) and Eimeria tenella (strain FS-155); assay: Coccidiosis test in broiler chicks, A80190 with nicarbazin (Test 1); assay type: in vivo; settings: A80190 0 p.p.m. in ration

Molecule: CC(=O)OCC1=C(C(=O)O)N2C(=O)[C@@H](NC(=O)Cc3cccs3)[C@H]2SC1 [Cephalothin]
- Resistance to Antibiotics (NRRL 15878; Concentration 30 µg): +

Molecule: CN(C)[C@@H]1C(O)=C(C(N)=O)C(=O)[C@@]2(O)C(O)=C3C(=O)c4c(O)cccc4[C@@](C)(O)[C@H]3C[C@@H]12 [Tetracycline]
- Resistance to Antibiotics (NRRL 15878; Concentration 30 µg): -

Molecule: [H]/N=C(/N)N[C@H]1[C@H](O)[C@@H](O)[C@H](O[C@@H]2O[C@@H](C)[C@](O)(C=O)[C@H]2O[C@@H]2O[C@@H](CO)[C@H](O)[C@@H](O)[C@@H]2NC)[C@@H](N/C(N)=N\[H])[C@@H]1O [Streptomycin]
- Resistance to Antibiotics (NRRL 15878; Concentration 10 µg): -

Molecule: CO[C@H]1/C=C/O[C@@]2(C)Oc3c(C)c(O)c4c(O)c(c(/C=N/N5CCN(C)CC5)c(O)c4c3C2=O)NC(=O)/C(C)=C\C=C\[C@H](C)[C@H](O)[C@@H](C)[C@@H](O)[C@@H](C)[C@H](OC(C)=O)[C@@H]1C [Rifampin]
- Resistance to Antibiotics (NRRL 15878; Concentration 5 µg): +

Molecule: NC[C@H]1O[C@H](O[C@H]2[C@H](O)[C@@H](O[C@H]3O[C@H](CO)[C@@H](O)[C@H](N)[C@H]3O)[C@H](N)C[C@@H]2N)[C@H](N)C[C@@H]1O [Tobramycin]
- Resistance to Antibiotics (A. macra; Concentration 10 µg): -
- Resistance to Antibiotics (NRRL 15878; Concentration 10 µg): -

Molecule: CCC[C@@H]1C[C@@H](C(=O)N[C@@H]([C@H]2O[C@H](SC)[C@H](O)[C@@H](O)[C@H]2O)[C@@H](C)O)N(C)C1 [Lincomycin]
- Resistance to Antibiotics (A. macra; Concentration 2 µg): +
- Resistance to Antibiotics (NRRL 15878; Concentration 2 µg): +

Molecule: CO[C@H]1C[C@H](O[C@H]2[C@H](C)[C@@H](O[C@@H]3O[C@H](C)C[C@H](N(C)C)[C@H]3O)[C@@H](C)C[C@@]3(CO3)C(=O)[C@H](C)[C@@H](O)[C@@H](C)[C@@H](C)OC(=O)[C@@H]2C)O[C@@H](C)[C@@H]1O [Oleandomycin]
- Resistance to Antibiotics (NRRL 15878; Concentration 15 µg): -

Molecule: NC[C@@H]1O[C@H](O[C@H]2[C@@H](O)[C@H](O[C@@H]3[C@@H](O)[C@H](N)C[C@H](N)[C@H]3O[C@H]3O[C@H](CN)[C@@H](O)[C@H](O)[C@H]3N)O[C@@H]2CO)[C@H](N)[C@@H](O)[C@@H]1O [Neomycin]
- Resistance to Antibiotics (A. macra; Concentration 30 µg): -
- Resistance to Antibiotics (NRRL 15878; Concentration 30 µg): -

Molecule: CC1(C)S[C@@H]2[C@H](NC(=O)Cc3ccccc3)C(=O)N2[C@H]1C(=O)O [Pencillin G]
- Resistance to Antibiotics (NRRL 15878; Concentration 10 units): +

Molecule: Nicarbazin [reference compound]
- CECAL LESION SCORES ([1]; Nicarbazin 20 p.p.m.): 3.19
- INTESTINAL LESION SCORES ([1]; Nicarbazin 20 p.p.m.): 9.13
- WEIGHT GAIN ([1]; Nicarbazin 20 p.p.m.): 159 grams/per chicken
- CECAL LESION SCORES ([1]; Nicarbazin 30 p.p.m.): 3.50
- INTESTINAL LESION SCORES ([1]; Nicarbazin 30 p.p.m.): 8.88
- WEIGHT GAIN ([1]; Nicarbazin 30 p.p.m.): 174 grams/per chicken
- CECAL LESION SCORES ([1]; Nicarbazin 40 p.p.m.): 3.17
- INTESTINAL LESION SCORES ([1]; Nicarbazin 40 p.p.m.): 8.90
- WEIGHT GAIN ([1]; Nicarbazin 40 p.p.m.): 211 grams/per chicken
- CECAL LESION SCORES ([1]; Nicarbazin 50 p.p.m.): 3.19
- INTESTINAL LESION SCORES ([1]; Nicarbazin 50 p.p.m.): 8.56
- WEIGHT GAIN ([1]; Nicarbazin 50 p.p.m.): 222 grams/per chicken
- CECAL LESION SCORES ([1]; Nicarbazin 125 p.p.m.): 0.33
- INTESTINAL LESION SCORES ([1]; Nicarbazin 125 p.p.m.): 0.08
- WEIGHT GAIN ([1]; Nicarbazin 125 p.p.m.): 279 grams/per chicken
